Laboratory results reported in US20240114939A1, “HYDROXY- AND METHOXY-SUBSTITUTED FLAVONES AND THEIR USE” (Firmenich SA, priority 2021, published 2024).

Legend:
human sensory panel [1] = experiment: Human sensory panel, bitter and astringent taste versus reference water solution with 10 ppm mixture of Limonin, Naringin and Nomilin; type: in vivo; settings: 20 trained panelists, scale −5 (strong masking) to 5 (strong enhancing); for Astringency: 0 = reference water solution; for Bitterness: 0 = reference water solution with 10 ppm mixture of Limonin, Naringin and Nomilin
Excerpt: (§1) Certain HMF compounds were tasted by a human sensory panel to assess their ability to reduce bitterness, reduce astringency, and enhance sweetness. The panel consisted of 20 trained panelists evaluating the samples at 1 ppm, 5 ppm, or 10 ppm for taste properties (sweet, bitter, or astringent) on a scale of −5 to 5 (−5 denoted strong masking effect and 5 denoted strong enhancing effect, 0 being the intensity of a reference water solution containing 4% sucrose or 10 ppm mixture of Limonin, Naringin and Nomilin) The results are set forth in Table 2. The composition numberings (“Cpn”) are set forth above in Example 1.

human sensory panel [2] = experiment: Human sensory panel, sweet taste versus reference water solution containing 4% sucrose; type: in vivo; settings: 20 trained panelists, scale −5 (strong masking) to 5 (strong enhancing), 0 = reference water solution containing 4% sucrose
Excerpt: as §1

panel of 8 experts = experiment: Expert panel, bitter and astringent taste in coffee; type: in vivo, human; settings: 10 ppm, scale −5 (strong masking) to 5 (strong enhancing), 0 = reference application in coffee
Excerpt: A panel consisted in 8 experts evaluating the samples at 10 ppm for taste properties (bitter and astringent) on a scale of −5 to 5 (−5 denoted strong masking effect and 5 denoted strong enhancing effect, 0 being the intensity of a reference application in coffee).

Structure (SMILES)	Astringency (human sensory panel [1]; 10 ppm)	Bitterness (human sensory panel [1]; 10 ppm)	Sweetness (human sensory panel [2]; 10 ppm)	also measured
COc1cc(-c2cc(=O)c3c(OC)c(OC)c(OC)cc3o2)ccc1O [Cpd 101, 4′-hydroxy-5,6,7,3′-tetramethoxyflavone]	−0.92	−0.92	0.58	
COc1cc(-c2cc(=O)c3c(OC)c(OC)c(OC)c(OC)c3o2)ccc1O [Cpd 103, 4′-hydroxy-5,6,7,8,3′-pentamethoxyflavone]	−0.67	−1.17	0.17	
COc1cc2oc(-c3ccc(O)cc3)cc(=O)c2c(OC)c1OC [Cpd 104, 4′-Hydroxy-5,6,7-trimethoxyflavone]	−0.33	−1.00	0.08	
COc1c(OC)c(OC)c2c(=O)cc(-c3ccc(O)cc3)oc2c1OC [Cpd 106, 4′-hydroxy-5,6,7,8-tetramethoxyflavone]				Astringency (human sensory panel [1]; 5 ppm): −0.30; Bitterness (human sensory panel [1]; 5 ppm): −2.00; Sweetness (human sensory panel [2]; 5 ppm): 0.25
COc1ccc(-c2cc(=O)c3c(OC)c(OC)c(OC)cc3o2)cc1O [Cpd 107, 3′-hydroxy-5,6,7,4′-tetramethoxyflavone]				Astringency (human sensory panel [1]; 1 ppm): 0.00; Bitterness (human sensory panel [1]; 1 ppm): 0.08; Sweetness (human sensory panel [2]; 1 ppm): 0.50
COc1ccc(-c2cc(=O)c3c(OC)c(OC)c(OC)c(OC)c3o2)cc1O [Cpd 109, 3′-hydroxy-5,6,7,8,4′-pentamethoxyflavone]	−1.80	−3.51	0.03	Astringency (panel of 8 experts): 0.60; Bitterness (panel of 8 experts): −1.80
